Earlier results, collected in patent US8614315B2, “Cefdinir and cefixime formulations and uses thereof” (priority 2010, dated 2013).

Columns and labels:
[1] = pH 3.2, room temperature
[2] = not given; remark: listed apart in the source

Row | solubility in water, methanol, ethanol, acetone and many other organic solvents | solubility in a solution with a pH value of 3.2 [1] | solubility in ethanol and acetone ([2]; ethanol, acetone) | solubility in ether, ethyl acetate, hexane and water ([2]; ether, ethyl acetate, hexane, water) | solubility in methanol and propylene glycol ([2]; methanol, propylene glycol) | SMILES
1 | poor solubility |  |  |  |  | C=CC1=C(C(=O)O)N2C(=O)[C@@H](NC(=O)/C(=N\O)c3csc(N)n3)[C@H]2SC1 [Cefdinir, (6R,7R)-7-[[(2Z)-(2-amino-4-thiazolyl)(hydroxyimino)acetyl]amino]-3-ethenyl-8-oxo-5-thia-1-azabicyclo[4.2.0]oct-2-en-2-carboxylic acid]
2 |  | 0.5 mg/mL | partially soluble | does not dissolve | freely soluble | C=CC1=C(C(=O)O)N2C(=O)[C@@H](NC(=O)/C(=N\OCC(=O)O)c3csc(N)n3)[C@H]2SC1 [Cefixime, (6R,7R)-7-{[2-(2-amino-1,3-thiazol-4-yl)-2-(carboxymethyloxyimino)acetyl]amino}-3-ethenyl-8-oxo-5-thia-1-azabicyclo [4.2.0]oct-2-en-2-carboxylic acid]
